Experimental data from patent publication US5700804A, “Pharmaceutical compounds” (Xenova Limited, priority 1992, dated 1997).

Biological target: PAI-1 (Homo sapiens, UniProt P05121)
Assay: PAI chromogenic substrate assay (first S2251 assay, tPA/plasminogen system)
Assay type: biochemical
Method: In this assay, a compound is incubated with PAI-1 prior to addition to the tPA assay system. Inhibition of PAI-1 results in the production of plasmin from plasminogen. In turn, plasmin cleaves the chromogenic substrate S2251 (Kabi Vitrum) producing pNA (p-nitroaniline) which is detected spectrophotometrically at 405 nm (K. Nilsson et al, Fibrinolysis (1987) 1, 163-168).
Compounds of formula (A) were tested in a PAI chromogenic substrate assay. In the first assay (K. Nilsson, Fibrinolysis (1987) 1, 163-168) each compound was incubated with PAI-1 prior to addition to the tPA assay system. […] In turn, the plasmin cleaved the chromogenic substrate S2251 (Kabi-Vitrum) producing pNA (p-nitroaniline) which was detected spectrophotometrically at 405 nm.

PAI-1, sequence (P05121 24-402): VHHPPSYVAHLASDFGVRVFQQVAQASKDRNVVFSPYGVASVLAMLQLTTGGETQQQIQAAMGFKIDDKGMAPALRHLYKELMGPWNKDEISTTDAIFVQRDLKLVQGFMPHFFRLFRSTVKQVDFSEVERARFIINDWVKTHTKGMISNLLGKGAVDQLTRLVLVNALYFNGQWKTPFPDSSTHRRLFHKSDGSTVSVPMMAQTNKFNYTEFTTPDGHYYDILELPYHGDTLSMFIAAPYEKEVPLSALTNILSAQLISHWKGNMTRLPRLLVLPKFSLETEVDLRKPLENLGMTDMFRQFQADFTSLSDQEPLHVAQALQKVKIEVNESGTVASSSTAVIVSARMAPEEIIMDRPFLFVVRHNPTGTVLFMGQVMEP

Inhibition of PAI-1 in the first S2251 chromogenic substrate assay (Concentration 12.5 μm) [%] | Inhibition of PAI-1 in the first S2251 chromogenic substrate assay (Concentration 25 μm) [%] | Inhibition of PAI-1 in the first S2251 chromogenic substrate assay (Concentration 50 μm) [%] | Inhibition of PAI-1 in the first S2251 chromogenic substrate assay (Concentration 100 μm) [%] | Inhibition of PAI-1 in the first S2251 chromogenic substrate assay (Concentration 7.5 μm) [%] | Inhibition of PAI-1 in the first S2251 chromogenic substrate assay (Concentration 15 μm) [%] | Inhibition of PAI-1 in the first S2251 chromogenic substrate assay (Concentration 30 μm) [%] | Inhibition of PAI-1 in the first S2251 chromogenic substrate assay (Concentration 60 μm) [%] | Inhibition of PAI-1 in the first S2251 chromogenic substrate assay (Concentration 3.75 μm) [%] | Inhibition of PAI-1 in the first S2251 chromogenic substrate assay (Concentration 6.25 μm) [%] | Compound
19 | 60 | 76 | 71 |  |  |  |  |  |  | CSCc1ccc(/C=c2\[nH]c(=O)/c(=C/c3ccccc3)[nH]c2=O)cc1 [Compound 59, (3Z,6Z)-6-Benzylidene-3-(4-methylthiomethylbenzylidene)-2,5-piperazinedione]
1 | 25 | 52 | 62 |  |  |  |  |  |  | COc1ccc(/C=c2\[nH]c(=O)/c(=C/c3ccc(CS(C)(=O)=O)cc3)[nH]c2=O)cc1 [Compound 60, (3Z,6Z)-3-(4-Methoxybenzylidene)-6-(4-methylsulfonylmethylbenzylidene)-2,5-piperazinedione]
36 | 13 | 33 | 83 |  |  |  |  |  |  | COC(=O)c1cccc(/C=c2\[nH]c(=O)/c(=C/c3ccccc3)[nH]c2=O)c1 [Compound 62, 3-((3Z,6Z)-6-Benzylidene-2,5-dioxopiperazin-3-ylidene)methylbenzoic acid, methyl ester]
 |  |  |  | 17 | 63 | 87 | 100 |  |  | O=c1[nH]/c(=C\c2cccc(CS)c2)c(=O)[nH]/c1=C\c1ccccc1 [Compound 64, (3Z,6Z)-6-Benzylidene-3-(3-mercaptomethylbenzylidene)-2,5-piperazinedione]
3 | 14 | 40 | 68 |  |  |  |  |  |  | COc1ccc(/C=c2\[nH]c(=O)/c(=C/c3ccc(F)cc3F)[nH]c2=O)cc1 [Compound 69, (3Z,6Z)-3-(2,4-Difluorobenzylidene)-6-(4-methoxybenzylidene)-2,5-piperazinedione]
4 | 21 | 78 | 94 |  |  |  |  |  |  | COc1ccc(/C=c2\[nH]c(=O)/c(=C/c3ccccc3C(F)(F)F)[nH]c2=O)cc1 [Compound 70, (3Z,6Z)-3-(4-Methoxybenzylidene)-6-(2-trifluoromethylbenzylidene)-2,5-piperazinedione]
 |  |  |  | 1 | 51 | 64 | 52 | 1 |  | CC(=O)Nc1ccc(/C=c2\[nH]c(=O)/c(=C/c3ccccc3F)[nH]c2=O)cc1 [Compound 71, (3Z,6Z)-3-(4-Acetamidobenzylidene)-6-(2-fluorobenzylidene)-2,5-piperazinedione]
 |  |  |  | 1 | 18 | 75 | 76 | 2 |  | CC(=O)Nc1ccc(/C=c2\[nH]c(=O)/c(=C/c3ccc(F)cc3)[nH]c2=O)cc1 [Compound 72, (3Z,6Z)-3-(4-Acetamidobenzylidene)-6-(4-fluorobenzylidene)-2,5-piperazinedione]
2 | 1 | 3 | 50 |  |  |  |  |  |  | COc1ccc(/C=c2\[nH]c(=O)/c(=C/c3ccc(OC)cc3OC)[nH]c2=O)cc1 [Compound 73, (3Z,6Z)-3-(2,4-Dimethoxybenzylidene)-6-(4-methoxybenzylidene)-2,5-piperazinedione]
6 | 33 | 52 | 59 |  |  |  |  |  | 2 | CN(C)CCCOc1ccc(/C=c2\[nH]c(=O)/c(=C/c3ccccc3)[nH]c2=O)cc1 [Compound 75, (3Z,6Z)-6-Benzylidene-3-(4-(3-N,N-dimethylaminopropoxy)benzylidene)-2,5-piperazinedione]
61 | 80 | 66 | 33 |  |  |  |  |  | 1 | CC(=O)Nc1ccc(/C=c2\[nH]c(=O)/c(=C/c3ccc(F)cc3F)[nH]c2=O)cc1 [Compound 77]
4 | 36 | 57 | 30 |  |  |  |  |  | 2 | CC(=O)Nc1ccc(/C=c2\[nH]c(=O)/c(=C/c3ccccc3C(F)(F)F)[nH]c2=O)cc1 [Compound 78, (3Z,6Z)-6-(4-Acetamidobenzylidene)-3-(2-trifluoromethylbenzylidene)-2,5-piperazinedione]
2 | 27 | 55 | 42 |  |  |  |  |  | 1 | CC(=O)Nc1ccc(/C=c2\[nH]c(=O)/c(=C/c3ccccc3Br)[nH]c2=O)cc1 [Compound 79, (3Z,6Z)-6-(4-Acetamidobenzylidene)-3-(2-bromobenzylidene)-2,5-piperazinedione]
0 | 1 | 9 | 53 |  |  |  |  |  |  | COc1ccc(/C=c2\[nH]c(=O)/c(=C/c3ccc(C(N)=O)cc3)[nH]c2=O)cc1 [Compound 80, 4-[(3Z,6Z)-6-(4-Methoxybenzylidene)-2,5-dioxopiperazin-3-ylidene]methylbenzamide]

Compound | Inhibition of PAI-1 in the first S2251 chromogenic substrate assay (Concentration 12.5 μm) [%] | Inhibition of PAI-1 in the first S2251 chromogenic substrate assay (Concentration 25 μm) [%] | Inhibition of PAI-1 in the first S2251 chromogenic substrate assay (Concentration 50 μm) [%] | Inhibition of PAI-1 in the first S2251 chromogenic substrate assay (Concentration 100 μm) [%] | Inhibition of PAI-1 in the first S2251 chromogenic substrate assay (Concentration 7.5 μm) [%] | Inhibition of PAI-1 in the first S2251 chromogenic substrate assay (Concentration 15 μm) [%] | Inhibition of PAI-1 in the first S2251 chromogenic substrate assay (Concentration 30 μm) [%] | Inhibition of PAI-1 in the first S2251 chromogenic substrate assay (Concentration 60 μm) [%] | Inhibition of PAI-1 in the first S2251 chromogenic substrate assay (Concentration 3.75 μm) [%] | Inhibition of PAI-1 in the first S2251 chromogenic substrate assay (Concentration 6.25 μm) [%]
CC(=O)SCc1cccc(/C=c2\[nH]c(=O)/c(=C/c3ccccc3)[nH]c2=O)c1 [Compound 61, (3Z,6Z)-6-Benzylidene-3-(3-thioacetoxymethylbenzylidene)-2,5-piperazinedione] | 26 | 69 | 88 | 83 |  |  |  |  |  | 
COc1ccc(/C=c2\[nH]c(=O)/c(=C/c3cccc(CSC(C)=O)c3)[nH]c2=O)cc1 [Compound 63, (3Z,6Z)-3-(4-Methoxybenzylidene)-6-(3-thioacetoxymethylbenzylidene)-2,5-piperazinedione] | 36 | 44 | 70 | 69 |  |  |  |  |  | 
CC(C)(C)OC(=O)NCc1ccc(/C=c2\[nH]c(=O)/c(=C/c3ccccc3)[nH]c2=O)cc1 [Compound 66] | 2 | 46 | 70 | 85 |  |  |  |  |  | 
CC(=O)Nc1ccc(/C=c2\[nH]c(=O)/c(=C/c3ccc(CNC(=O)OC(C)(C)C)cc3)[nH]c2=O)cc1 [Compound 68, (3Z,6Z)-3-(4-Acetamidobenzylidene)-6-(4-tert-butoxycarbonylaminomethylbenzylidene)-2,5-piperazinedione] | 37 | 67 | 89 | 63 |  |  |  |  |  | 
CC(=O)SCc1ccc(/C=c2\[nH]c(=O)/c(=C/c3ccccc3)[nH]c2=O)cc1 [Compound 76, (3Z,6Z)-6-Benzylidene-3-(4-thioacetoxymethylbenzylidene)-2,5-piperazinedione] | 5 | 50 | 75 | 66 |  |  |  |  |  | 2
COc1ccc(/C=c2\[nH]c(=O)/c(=C/c3ccc(OC(=O)C(C)(C)C)cc3)[nH]c2=O)cc1 [Compound 81, (3Z,6Z)-3-(4-Methoxybenzylidene)-6-(4-trimethylacetoxybenzylidene)-2,5-piperazinedione] | 0 | 1 | 1 | 64 |  |  |  |  |  | 
CC(=O)Nc1ccc(/C=c2\[nH]c(=O)/c(=C/c3ccc(OC(=O)C(C)(C)C)cc3)[nH]c2=O)cc1 [Compound 82, (3Z,6Z)-3-(4-Acetamidobenzylidene)-6-(4-trimethylacetoxybenzylidene)-2,5-piperazinedione] | 1 | 1 | 3 | 80 |  |  |  |  |  | 
